Among the test systems are CCRF-CEM; COLO 205; HCC 2998; HCT-116; HL-60; Hs-578T; IGROV-1; NCI-H226; NCI/ADR-RES; OVCAR-3; OVCAR-4; SF-295; SK-MEL-2; SNB-75; U-251; UACC-257; A498; EKVX; SK-MEL-5.
Common to all, as to test: DTP human tumour cell line panel, 48 h

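Briefly, cells in 96-well plates were exposed to five compound concentrations for 48 h, and endpoints were estimated by linear interpolation. GI50 = concentration required for 50% inhibition of growth.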 The source made the active and inactive calls. No stated cut-off is given here; in the data, active = GI50 up to about 1.1 µM and inactive = higher. Bounds are passed on as bounds.

The GI50 is the concentration giving 50% growth inhibition. With `CC(C)N1CC2CN(Cc3ccccc3)CC(C1)C2=O`, the GI50 in the experiment on CCRF-CEM is 89.1 µM (inactive); with COLO 205, > 100 µM (inactive); with HCC 2998, > 100 µM (inactive); with HCT-116 it was > 100 µM (inactive); in the experiment on HL-60, > 100 µM (inactive); in the experiment with Hs-578T it was > 100 µM (inactive). Besides, the GI50 in the experiment with IGROV-1, with NCI-H226, with NCI/ADR-RES, in the experiment on OVCAR-3, in the experiment with OVCAR-4 and with SF-295 was > 100 µM (inactive) throughout. Moreover, the GI50 with SK-MEL-2, with SNB-75, with U-251 and in the experiment with UACC-257 was > 100 µM (inactive) in each case.

Consider `NC(CC1=CCC=CC1)C(=O)O` (configuration not stated), for which the GI50 in the experiment on A498 was > 100 µM (inactive); in the experiment on CCRF-CEM it was 62.8 µM (inactive); with COLO 205, 38 µM (inactive); in the experiment on EKVX, > 100 µM (inactive); with HCC 2998 it was > 100 µM (inactive); with HCT-116, 55.1 µM (inactive). In addition, the GI50 in the experiment with Hs-578T is 50.6 µM (inactive); in the experiment on IGROV-1, 67.8 µM (inactive); in the experiment on OVCAR-3, 51.5 µM (inactive); in the experiment with OVCAR-4, > 100 µM (inactive); in the experiment on SF-295 it was 60.3 µM (inactive); in the experiment with SK-MEL-2, 53.7 µM (inactive). Further, the GI50 is > 100 µM (inactive) in the experiment on SK-MEL-5, 99.5 µM (inactive) in the experiment on SNB-75, 64.4 µM (inactive) with U-251 and > 100 µM (inactive) in the experiment with UACC-257.

As for `c1cnc2c(c1)-n1cccc1C1(CCCCC1)NN2`, the GI50 in the experiment with CCRF-CEM was 41.5 µM (inactive); with COLO 205, > 100 µM (inactive); with EKVX it was 82.2 µM (inactive); in the experiment with HCC 2998, > 100 µM (inactive); in the experiment with HCT-116 it was 59.8 µM (inactive); in the experiment on HL-60, 93.8 µM (inactive). Moreover, the GI50 was > 100 µM (inactive) in the experiment on NCI-H226; 86.3 µM (inactive) with OVCAR-3; > 100 µM (inactive) in the experiment on OVCAR-4; 69.2 µM (inactive) in the experiment on SF-295; > 100 µM (inactive) with SK-MEL-2; 71.3 µM (inactive) in the experiment on SK-MEL-5. Also, the GI50 in the experiment on SNB-75 is > 100 µM (inactive); with UACC-257 it was 48.4 µM (inactive).

`CN(C)C(=N)/N=C(\N)Nc1cccc(Cl)c1`: the GI50 with COLO 205 is 20 µM (inactive); in the experiment on EKVX it was > 100 µM (inactive); with HCC 2998 it was > 100 µM (inactive); in the experiment on HCT-116, 85.7 µM (inactive); with Hs-578T, > 100 µM (inactive); in the experiment on IGROV-1, 24.5 µM (inactive). For the same molecule, the GI50 with NCI-H226 is 22.3 µM (inactive); in the experiment with NCI/ADR-RES it was > 100 µM (inactive); with OVCAR-3, > 100 µM (inactive); with OVCAR-4, > 100 µM (inactive); in the experiment with SF-295, 84.1 µM (inactive); in the experiment on SK-MEL-2, > 100 µM (inactive). The GI50 is 28.1 µM (inactive) with SK-MEL-5, 91.2 µM (inactive) in the experiment on SNB-75, > 100 µM (inactive) in the experiment with U-251 and 90.8 µM (inactive) in the experiment with UACC-257.

On to `CCOC(=O)[C@H](CO)NC1=C(Cl)C(=O)c2c(O)ccc(O)c2C1=O`, for which the GI50 with CCRF-CEM is > 10 µM (inactive); in the experiment with COLO 205, 3.87 µM (inactive); in the experiment with EKVX it was > 10 µM (inactive); in the experiment with HCC 2998 it was > 10 µM (inactive); in the experiment with HCT-116, > 10 µM (inactive); with HL-60, > 10 µM (inactive). For the same molecule, the GI50 in the experiment on Hs-578T, with IGROV-1, in the experiment on NCI-H226, in the experiment on NCI/ADR-RES, in the experiment with OVCAR-3 and with OVCAR-4 was > 10 µM (inactive) in each case. The GI50 in the experiment with SF-295, in the experiment on SK-MEL-2, in the experiment with SK-MEL-5, with SNB-75, with U-251 and in the experiment with UACC-257 was > 10 µM (inactive) in each case.

Regarding `Cc1c(C#N)c(N)n(C2OC(CO)C(O)C(O)C2O)c(=S)c1C#N` (configuration not stated), the GI50 in the experiment on A498, in the experiment with CCRF-CEM, in the experiment on EKVX, in the experiment with HCC 2998, in the experiment on HCT-116 and with HL-60 was > 100 µM (inactive) throughout. The GI50 in the experiment on Hs-578T, in the experiment on IGROV-1, in the experiment on NCI-H226, in the experiment with OVCAR-3, in the experiment with OVCAR-4 and in the experiment with SF-295 was > 100 µM (inactive) in each case. Also, the GI50 with SK-MEL-5, in the experiment on SNB-75, in the experiment on U-251 and in the experiment on UACC-257 was > 100 µM (inactive) each time.

Consider `CCOC(=O)CCc1c(C(=O)OCC)[nH]c(/C=C2\NC(=O)C(C)=C2CC)c1C`, for which the GI50 in the experiment with CCRF-CEM is > 100 µM (inactive); in the experiment with COLO 205, > 100 µM (inactive); with EKVX, 22.2 µM (inactive); with HCT-116, 33.7 µM (inactive); with HL-60 it was > 100 µM (inactive); with IGROV-1, 4.59 µM (inactive). Also, the GI50 was 36.5 µM (inactive) in the experiment with NCI-H226; 12.9 µM (inactive) in the experiment on NCI/ADR-RES; 18.5 µM (inactive) in the experiment on OVCAR-3; 20.4 µM (inactive) in the experiment with OVCAR-4; 17.8 µM (inactive) in the experiment with SF-295; 18.1 µM (inactive) in the experiment with SK-MEL-2. In addition, the GI50 with SNB-75 is 13.5 µM (inactive); with U-251 it was 15.3 µM (inactive).

Regarding `OC(c1ccccc1)(c1cccnc1)C(O)(c1ccccc1)c1cccnc1` (configuration not stated), the GI50 in the experiment on CCRF-CEM, in the experiment on COLO 205, in the experiment with EKVX, with HCT-116, in the experiment with HL-60 and with Hs-578T was > 100 µM (inactive) in each case. Moreover, the GI50 in the experiment with IGROV-1 was > 100 µM (inactive); in the experiment on NCI-H226, 69.7 µM (inactive); in the experiment with NCI/ADR-RES it was > 100 µM (inactive); in the experiment with SF-295 it was > 100 µM (inactive); in the experiment on SK-MEL-2, > 100 µM (inactive); with SK-MEL-5, > 100 µM (inactive). In addition, the GI50 with SNB-75, with U-251 and with UACC-257 was > 100 µM (inactive) each time.

`Cc1ccc(S(=O)(=O)c2c(N)n(CCN(C)C)c3nc4ccccc4nc23)cc1`: the GI50 with CCRF-CEM was 96.6 µM (inactive); with COLO 205, > 100 µM (inactive); in the experiment with EKVX it was > 100 µM (inactive); in the experiment with HCC 2998, > 100 µM (inactive); in the experiment with HCT-116, > 100 µM (inactive); with HL-60, > 100 µM (inactive). Further, the GI50 with IGROV-1, with NCI-H226, with OVCAR-3, in the experiment on OVCAR-4, in the experiment on SF-295 and in the experiment on SK-MEL-2 was > 100 µM (inactive) in each case. The GI50 in the experiment on SK-MEL-5 is > 100 µM (inactive); in the experiment with SNB-75, > 100 µM (inactive); in the experiment on U-251, > 100 µM (inactive); in the experiment on UACC-257, 71.9 µM (inactive).

For the molecule `C=C(C)[C@H]1[C@@H]2OC(=O)[C@H]1[C@]1(O)C[C@H]3OC34C(=O)O[C@H]2[C@@]41C.CC(C)(O)[C@H]1[C@@H]2OC(=O)[C@H]1[C@]1(O)C[C@H]3OC34C(=O)O[C@H]2[C@@]41C` (some centres not stated), the GI50 in the experiment with A498, in the experiment on CCRF-CEM, in the experiment on COLO 205, in the experiment on EKVX, in the experiment with HCC 2998 and in the experiment with HCT-116 was > 100 µM (inactive) throughout. Also, the GI50 with HL-60, in the experiment with Hs-578T, with IGROV-1, in the experiment on NCI-H226, in the experiment on OVCAR-3 and with OVCAR-4 was > 100 µM (inactive) in each case. In addition, the GI50 in the experiment with SF-295, in the experiment with SK-MEL-2, with SK-MEL-5, with SNB-75, in the experiment with U-251 and in the experiment with UACC-257 was > 100 µM (inactive) in each case.

`Cc1c2c3cc(O)ccc3nc-2n(C)c2ccccc12`: the GI50 in the experiment on CCRF-CEM is 0.743 µM (active); with EKVX it was 2.58 µM (inactive); in the experiment with HCC 2998, 2.77 µM (inactive); in the experiment with HCT-116 it was 0.459 µM (active); in the experiment on HL-60, 2.34 µM (inactive); in the experiment with Hs-578T it was 2.9 µM (inactive). Further, the GI50 is 2.17 µM (inactive) in the experiment with IGROV-1; 2.86 µM (inactive) in the experiment with NCI-H226; 0.957 µM (active) with NCI/ADR-RES; 2.37 µM (inactive) in the experiment with OVCAR-3; 1.59 µM (inactive) in the experiment with SF-295; 1.09 µM (active) in the experiment with SK-MEL-5. Moreover, the GI50 in the experiment with SNB-75 is 2.45 µM (inactive); in the experiment with U-251, 0.838 µM (active); in the experiment on UACC-257, 2.69 µM (inactive).

As to `N#Cc1nc(NC(=O)c2ccccc2)sc1N`, the GI50 in the experiment on A498 was > 10 µM (inactive); in the experiment on CCRF-CEM, 4.54 µM (inactive); in the experiment on COLO 205 it was > 10 µM (inactive); in the experiment with EKVX, > 10 µM (inactive); in the experiment with HCC 2998, > 10 µM (inactive); in the experiment on HCT-116, > 10 µM (inactive). The GI50 with HL-60 was 3 µM (inactive); in the experiment on IGROV-1, > 10 µM (inactive); with NCI-H226 it was > 10 µM (inactive); with NCI/ADR-RES, > 9.48 µM (inactive); with OVCAR-3, > 10 µM (inactive); in the experiment on OVCAR-4 it was > 6.07 µM (inactive). Besides, the GI50 in the experiment on SF-295, in the experiment with SK-MEL-2, in the experiment on SK-MEL-5, with SNB-75, with U-251 and in the experiment on UACC-257 was > 10 µM (inactive) in each case.
